Experimental data from ChEMBL document CHEMBL1132535, “Design, synthesis, and evaluations of substituted 3-[(3- or 4-carboxyethylpyrrol-2-yl)methylidenyl]indolin-2-ones as inhibitors of VEGF, FGF, and PDGF receptor tyrosine kinases” (J Med Chem, 1999).

Experiments:
[1] = biological target: Fibroblast growth factor receptor 1 (Homo sapiens, UniProt P11362); experiment: Inhibitory activity against Fibroblast growth factor receptor 1
[2] = biological target: Epidermal growth factor receptor (Homo sapiens, UniProt P00533)
Chain of Epidermal growth factor receptor (P00533 whole entry): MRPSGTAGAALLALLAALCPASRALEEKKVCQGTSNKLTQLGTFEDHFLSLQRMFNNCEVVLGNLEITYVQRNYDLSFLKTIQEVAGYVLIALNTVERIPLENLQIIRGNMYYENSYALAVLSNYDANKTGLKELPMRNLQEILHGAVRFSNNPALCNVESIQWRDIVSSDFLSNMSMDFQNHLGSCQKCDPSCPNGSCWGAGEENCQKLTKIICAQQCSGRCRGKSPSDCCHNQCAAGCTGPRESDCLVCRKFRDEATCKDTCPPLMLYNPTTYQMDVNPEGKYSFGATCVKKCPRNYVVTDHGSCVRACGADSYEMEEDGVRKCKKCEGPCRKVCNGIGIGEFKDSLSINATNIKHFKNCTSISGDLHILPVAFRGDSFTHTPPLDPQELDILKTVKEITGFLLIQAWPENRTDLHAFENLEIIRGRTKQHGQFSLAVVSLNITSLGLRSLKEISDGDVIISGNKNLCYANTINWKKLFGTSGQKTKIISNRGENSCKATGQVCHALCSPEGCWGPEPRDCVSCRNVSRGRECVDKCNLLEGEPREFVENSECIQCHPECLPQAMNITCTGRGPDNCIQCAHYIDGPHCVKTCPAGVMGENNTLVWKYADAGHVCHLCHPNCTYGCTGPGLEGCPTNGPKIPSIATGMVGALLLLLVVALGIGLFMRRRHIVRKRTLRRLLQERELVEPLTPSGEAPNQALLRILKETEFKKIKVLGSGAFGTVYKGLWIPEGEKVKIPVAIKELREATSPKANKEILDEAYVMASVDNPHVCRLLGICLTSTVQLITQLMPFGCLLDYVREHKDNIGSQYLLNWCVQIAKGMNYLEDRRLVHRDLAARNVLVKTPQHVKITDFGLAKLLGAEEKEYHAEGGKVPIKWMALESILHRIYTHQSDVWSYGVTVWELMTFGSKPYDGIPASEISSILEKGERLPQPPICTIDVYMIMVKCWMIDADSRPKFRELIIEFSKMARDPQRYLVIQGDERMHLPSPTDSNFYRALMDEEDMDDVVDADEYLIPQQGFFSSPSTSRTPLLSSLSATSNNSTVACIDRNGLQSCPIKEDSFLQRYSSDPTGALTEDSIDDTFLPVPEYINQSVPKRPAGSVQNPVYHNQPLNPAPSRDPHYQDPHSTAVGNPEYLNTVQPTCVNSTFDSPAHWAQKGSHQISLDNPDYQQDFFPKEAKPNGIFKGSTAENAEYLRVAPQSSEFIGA

[3] = biological target: Platelet-derived growth factor receptor beta (Homo sapiens, UniProt P09619)
Chain of Platelet-derived growth factor receptor beta (P09619 whole entry): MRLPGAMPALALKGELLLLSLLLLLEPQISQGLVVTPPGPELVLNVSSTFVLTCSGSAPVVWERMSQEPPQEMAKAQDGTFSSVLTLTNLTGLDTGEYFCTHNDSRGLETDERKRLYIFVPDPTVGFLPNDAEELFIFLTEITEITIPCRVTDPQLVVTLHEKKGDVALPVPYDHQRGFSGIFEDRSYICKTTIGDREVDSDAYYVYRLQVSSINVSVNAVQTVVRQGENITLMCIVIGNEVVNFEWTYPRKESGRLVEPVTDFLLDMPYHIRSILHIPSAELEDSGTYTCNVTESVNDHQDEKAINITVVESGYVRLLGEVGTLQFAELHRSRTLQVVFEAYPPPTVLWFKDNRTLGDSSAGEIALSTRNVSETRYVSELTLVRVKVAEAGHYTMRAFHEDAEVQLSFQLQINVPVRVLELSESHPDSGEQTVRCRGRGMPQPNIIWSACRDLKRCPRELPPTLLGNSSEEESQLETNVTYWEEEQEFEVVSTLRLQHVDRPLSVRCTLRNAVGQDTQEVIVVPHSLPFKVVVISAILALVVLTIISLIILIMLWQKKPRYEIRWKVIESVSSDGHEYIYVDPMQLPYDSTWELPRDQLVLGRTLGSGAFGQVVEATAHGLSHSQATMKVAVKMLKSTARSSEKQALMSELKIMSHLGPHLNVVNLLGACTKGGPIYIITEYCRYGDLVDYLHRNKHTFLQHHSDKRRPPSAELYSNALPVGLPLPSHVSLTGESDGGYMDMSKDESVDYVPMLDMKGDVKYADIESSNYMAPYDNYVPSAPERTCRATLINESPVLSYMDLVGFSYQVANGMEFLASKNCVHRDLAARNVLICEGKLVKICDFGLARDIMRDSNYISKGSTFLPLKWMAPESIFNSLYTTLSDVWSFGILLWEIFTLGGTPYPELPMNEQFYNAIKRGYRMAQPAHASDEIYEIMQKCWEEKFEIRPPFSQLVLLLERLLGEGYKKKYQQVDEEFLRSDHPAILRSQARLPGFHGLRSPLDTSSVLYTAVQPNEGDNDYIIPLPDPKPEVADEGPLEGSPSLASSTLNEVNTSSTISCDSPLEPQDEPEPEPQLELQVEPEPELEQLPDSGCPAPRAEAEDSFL

[4] = biological target: Vascular endothelial growth factor receptor 2 (Homo sapiens, UniProt P35968)
Chain of Vascular endothelial growth factor receptor 2 (P35968 whole entry): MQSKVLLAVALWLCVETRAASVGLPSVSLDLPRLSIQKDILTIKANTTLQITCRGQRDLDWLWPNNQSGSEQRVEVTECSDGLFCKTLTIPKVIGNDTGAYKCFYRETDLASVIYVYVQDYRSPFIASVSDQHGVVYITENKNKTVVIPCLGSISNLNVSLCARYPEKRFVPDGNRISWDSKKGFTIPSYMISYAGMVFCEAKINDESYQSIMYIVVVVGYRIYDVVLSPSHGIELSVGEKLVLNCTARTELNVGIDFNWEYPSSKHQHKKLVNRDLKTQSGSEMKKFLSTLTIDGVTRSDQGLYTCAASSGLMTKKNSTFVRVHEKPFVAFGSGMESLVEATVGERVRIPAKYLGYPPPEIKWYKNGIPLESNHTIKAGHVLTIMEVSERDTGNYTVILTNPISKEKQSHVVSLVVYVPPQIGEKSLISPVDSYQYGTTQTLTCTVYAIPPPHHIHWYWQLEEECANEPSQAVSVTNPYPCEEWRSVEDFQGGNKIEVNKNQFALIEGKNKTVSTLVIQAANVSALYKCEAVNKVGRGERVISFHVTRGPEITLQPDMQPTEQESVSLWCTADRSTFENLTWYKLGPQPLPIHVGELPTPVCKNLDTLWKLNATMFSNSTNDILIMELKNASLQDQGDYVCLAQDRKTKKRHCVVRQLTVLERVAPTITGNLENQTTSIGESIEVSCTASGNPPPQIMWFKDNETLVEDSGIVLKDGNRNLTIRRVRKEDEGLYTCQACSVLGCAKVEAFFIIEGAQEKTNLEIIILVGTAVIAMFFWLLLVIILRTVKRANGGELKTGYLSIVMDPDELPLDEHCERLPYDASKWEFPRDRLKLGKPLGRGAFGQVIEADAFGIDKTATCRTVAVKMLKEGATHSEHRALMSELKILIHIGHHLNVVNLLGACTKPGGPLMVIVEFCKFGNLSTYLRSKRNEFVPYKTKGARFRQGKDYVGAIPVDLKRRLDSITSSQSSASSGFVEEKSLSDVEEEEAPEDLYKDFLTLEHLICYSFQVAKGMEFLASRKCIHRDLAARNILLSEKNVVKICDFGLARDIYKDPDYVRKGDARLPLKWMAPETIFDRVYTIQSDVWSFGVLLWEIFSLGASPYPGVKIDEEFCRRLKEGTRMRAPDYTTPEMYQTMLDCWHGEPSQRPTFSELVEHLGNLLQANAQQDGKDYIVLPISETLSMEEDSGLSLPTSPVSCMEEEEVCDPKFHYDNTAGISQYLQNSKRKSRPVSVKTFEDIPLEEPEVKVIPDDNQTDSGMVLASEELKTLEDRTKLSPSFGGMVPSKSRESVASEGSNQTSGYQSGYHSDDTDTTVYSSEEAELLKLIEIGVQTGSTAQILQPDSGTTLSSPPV

Chain of Fibroblast growth factor receptor 1 (P11362 whole entry): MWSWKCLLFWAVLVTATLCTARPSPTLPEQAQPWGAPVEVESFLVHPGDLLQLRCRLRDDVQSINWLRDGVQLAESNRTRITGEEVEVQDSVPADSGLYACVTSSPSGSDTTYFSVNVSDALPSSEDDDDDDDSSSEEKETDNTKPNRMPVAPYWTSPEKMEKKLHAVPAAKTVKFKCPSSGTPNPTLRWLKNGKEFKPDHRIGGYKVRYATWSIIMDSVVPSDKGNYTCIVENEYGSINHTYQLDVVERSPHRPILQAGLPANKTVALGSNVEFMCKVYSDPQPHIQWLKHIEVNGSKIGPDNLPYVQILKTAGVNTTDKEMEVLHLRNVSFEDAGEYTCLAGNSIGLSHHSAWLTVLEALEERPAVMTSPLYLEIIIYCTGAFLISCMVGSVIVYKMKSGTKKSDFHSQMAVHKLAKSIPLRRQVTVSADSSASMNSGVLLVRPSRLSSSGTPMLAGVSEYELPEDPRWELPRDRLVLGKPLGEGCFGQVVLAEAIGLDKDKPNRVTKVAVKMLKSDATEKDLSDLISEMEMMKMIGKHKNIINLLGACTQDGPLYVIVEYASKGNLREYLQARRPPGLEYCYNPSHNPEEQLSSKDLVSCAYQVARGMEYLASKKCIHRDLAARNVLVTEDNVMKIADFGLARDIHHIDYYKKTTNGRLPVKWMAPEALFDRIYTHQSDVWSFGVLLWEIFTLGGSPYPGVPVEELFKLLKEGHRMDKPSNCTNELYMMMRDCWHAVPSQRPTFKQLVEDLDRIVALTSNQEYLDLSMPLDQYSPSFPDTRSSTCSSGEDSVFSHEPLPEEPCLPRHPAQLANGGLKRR

| Compound | IC50 [1] [nM] | IC50 [2] [nM] | IC50 [3] [nM] | IC50 [4] [nM] |
| --- | --- | --- | --- | --- |
| Cc1c(CCC(=O)O)c[nH]c1/C=C1\C(=O)Nc2ccc(S(N)(=O)=O)cc21 | 460 | > 100000 | 5980 | 920 |
| COc1ccccc1-c1ccc2c(c1)NC(=O)/C2=C\c1[nH]cc(CCC(=O)O)c1C | 2130 | > 100000 | 1420 | 1470 |
| Cc1c[nH]c(/C=C2\C(=O)Nc3cccc(C)c32)c1CCC(=O)O | – | > 100000 | – | – |
| Cc1c[nH]c(/C=C2\C(=O)Nc3ccc(Br)cc32)c1CCC(=O)O | – | > 100000 | – | – |
| COc1ccc(-c2ccc3c(c2)NC(=O)/C3=C\c2[nH]cc(CCC(=O)O)c2C)cc1 | 1540 | > 100000 | 3080 | 450 |
| Cc1[nH]c(/C=C2\C(=O)Nc3ccc(C(=O)O)cc32)c(C)c1CCC(=O)O | 280 | > 100000 | 1210 | 70 |
| COc1ccc2c(c1)NC(=O)/C2=C\c1[nH]cc(CCC(=O)O)c1C | 3890 | > 100000 | 140 | 1350 |
| Cc1[nH]c(/C=C2\C(=O)Nc3ccc(S(N)(=O)=O)cc32)c(C)c1CCC(=O)O | 280 | – | 1530 | 1260 |
| Cc1c(CCC(=O)O)c[nH]c1/C=C1\C(=O)Nc2ccccc21 | 3680 | > 100000 | 140 | 2140 |
| Cc1[nH]c(/C=C2\C(=O)Nc3ccc(Br)cc32)c(C)c1CCC(=O)O | 2050 | > 100000 | 60 | 1730 |
| Cc1c(CCC(=O)O)c[nH]c1/C=C1\C(=O)Nc2ccc(C(=O)O)cc21 | 770 | > 100000 | 4190 | 240 |
| Cc1c[nH]c(/C=C2\C(=O)Nc3ccccc32)c1CCC(=O)O | 30 | > 100000 | 510 | 20 |

Further lines, results first:

| IC50 [1] [nM] | IC50 [2] [nM] | IC50 [3] [nM] | IC50 [4] [nM] | Compound |
| --- | --- | --- | --- | --- |
| 7330 | > 100000 | 2220 | 4370 | COc1ccccc1-c1ccc2c(c1)NC(=O)/C2=C\c1[nH]c(C)c(CCC(=O)O)c1C |
| 360 | > 100000 | 170 | 90 | COc1cccc(-c2ccc3c(c2)NC(=O)/C3=C\c2[nH]cc(CCC(=O)O)c2C)c1 |
| 2290 | > 100000 | 10 | 140 | Cc1[nH]c(/C=C2\C(=O)Nc3cc(-c4ccccc4)ccc32)c(C)c1CCC(=O)O |
| 5760 | > 100000 | 1000 | 520 | COc1ccc(-c2ccc3c(c2)NC(=O)/C3=C\c2[nH]c(C)c(CCC(=O)O)c2C)cc1 |
| 1050 | > 100000 | 160 | 300 | Cc1c(CCC(=O)O)c[nH]c1/C=C1\C(=O)Nc2cc(-c3ccccc3)ccc21 |
| 5400 | > 100000 | 550 | 8290 | COc1ccc2c(c1)NC(=O)/C2=C\c1[nH]c(C)c(CCC(=O)O)c1C |
| 1400 | > 100000 | 100 | 300 | COc1cccc(-c2ccc3c(c2)NC(=O)/C3=C\c2[nH]c(C)c(CCC(=O)O)c2C)c1 |
| 4500 | > 100000 | – | – | CCOc1cccc(-c2ccc3c(c2)NC(=O)/C3=C\c2[nH]cc(C)c2CCC(=O)O)c1 |
| 1200 | > 100000 | 450 | – | COc1cccc(-c2ccc3c(c2)NC(=O)/C3=C\c2[nH]cc(C)c2CCC(=O)O)c1 |
| – | – | 60 | – | Cc1[nH]c(/C=C2\C(=O)Nc3ccccc32)c(C)c1CCC(=O)O [ORANTINIB] |
